Values quoted from earlier work as cited in patent US20090247603A1, “Stabilized pharmaceutical compositions comprising an HMG-CoA reductase inhibitor” (Orbus Pharma, Inc., priority 2005, published 2009).

Conditions: following oral administration

dose recovered in urine: Less than 2%
SMILES: CC(C)c1c(C(=O)Nc2ccccc2)c(-c2ccccc2)c(-c2ccc(F)cc2)n1CC[C@@H](O)C[C@@H](O)CC(=O)[O-].CC(C)c1c(C(=O)Nc2ccccc2)c(-c2ccccc2)c(-c2ccc(F)cc2)n1CC[C@@H](O)C[C@@H](O)CC(=O)[O-].[Ca+2] (relative stereo) [atorvastatin calcium, (R—(R*,R*))-2-(4-fluorophenyl)-[beta],[delta]-dihydroxy-5-(1-methylethyl)-3-phenyl-4((phenylamino)carbonyl)-1H-pyrole-1-heptanoic acid hemi calcium salt]
